This is an account of results in patent US7825103B2, “Pyrimidine nucleoside compound or its salt” (Taiho Pharmaceutical Co., Ltd., priority 2005, dated 2010).

SMILES strings stand for the structures. Where a name gives a salt, the structure may show the parent alone.

For data set [1], the system named is Human large intestine cancer cell strain KM20C. In words: Anti-tumor test using nude mouse subcutaneous implantation system with peroral administration of CNDAC compound. It counts as in vivo, BALB/cA Jcl-nu mice. The note with it: peroral once a day for 14 days, dose equivalent by mole to 18 mg/kg/day of CNDAC, day 29 after grouping, KM20C subcutaneous implant; for inhibition in vivo: Mus musculus, sc, 696 h, read-out: IR (%) tumor growth inhibition rate. The method, then: (§1) Human large intestine cancer cell strain KM20C was subcutaneously subcultured in BALB/cA Jcl-nu mice (CLEA Japan, Inc.), and the resultant cancer tissues were cut into 2 mm dice fragments. Each of the fragments was subcutaneously implanted to a 6-week-old BALB/cA Jcl-nu mouse at the back thereof. On day 14 after the implantation, large and small diameters of the resultant tumor were measured, and the volume of the tumor was calculated by the following equation. The mice were grouped (6 animals per group) so that the groups were roughly equal in terms of average tumor volume. Vt=½(Vl)×(Vs)^2 (Equation 1) In the equation, Vt represents tumor volume, Vl represents large diameter of tumor, and Vs represents small diameter of tumor.
Each CNDAC compound was dissolved or suspended in 0.5% hydroxypropyl methyl cellulose solution which had been buffered with 100 mM citrate buffer (pH 6.0). From the next day after grouping, the mixture was perorally administered to each mouse once a day for consecutive 14 days in a dose which is equivalent, by mole, to 18 mg/kg/day of CNDAC.
On day 29 after the grouping, large and small diameters of the subcutaneously implanted tumor of each mouse were measured, and relative tumor volume (RTV) and inhibition rate (IR) were calculated by the following equations to evaluate anti-tumor effect of the compound. RTV=Vt1/Vt2 (Equation 2) In the equation, RTV represents ratio of tumor volume, Vt1 represents tumor volume measured on the day of determination, and […]. IR(%)=[1−(RTVtest)/(RTVcont)]×100 (Equation 3) In the equation, IR represents tumor growth inhibition rate, RTVtest represents mean RTV value of a drug-administered group, and RTVcont represents mean RTV value of a non-treatment group.

Data set [2] shares this test system. The data set is described as follows: Anti-tumor test using nude mouse subcutaneous implantation system, peroral administration in an equitoxic dose. Format: in vivo, BALB/cA Jcl-nu mice. The conditions noted are these: peroral once a day for 14 days, 6 animals per group, FIG. 1. How it is done:
as §1, with “15” for “14”, “through use of” for “by”, “the” for “the groups were roughly equal in terms of”, “volume was common to each group.” for “volume.”, “5)” for “1)”
CNDAC, P-CNDAC, or Compound 19 was dissolved or suspended in 0.5% hydroxypropyl methyl cellulose solution which had been buffered with 100 mM citrate buffer (pH 5.0). From the next day of grouping, the mixture was perorally administered to each mouse once a day for consecutive 14 days in an equitoxic dose.
Large and small diameters of the subcutaneously implanted tumor of each mouse were measured twice a week, and relative tumor volume (RTV) was calculated as an index indicating tumor growth through use of the following equations to evaluate anti-tumor effect of the compound. RTV=Vt1/Vt2 (Equation 6) In the equation, RTV represents ratio of tumor volume, Vt1 represents tumor volume measured on the day of determination, and Vt2 represents tumor volume measured on the day of grouping.

As usually defined, the melting point is the temperature of the solid-liquid transition. For the compound `C[Si](C)(OC[C@H]1O[C@@H](n2ccc(N)nc2=O)[C@@H](C#N)[C@@H]1O)c1ccccc1`, the melting point is 139 to 140 °C.
The same measure, in the same setting: to `CC(C)C(C)(C)[Si](C)(C)OC[C@H]1O[C@@H](n2ccc(N)nc2=O)[C@H](C#N)[C@@H]1O` belongs 187 to 187.5 °C; to `CC(C)C(C)(C)[Si](C)(C)O[C@H]1[C@H](C#N)[C@H](n2ccc(N)nc2=O)O[C@@H]1CO.CS(=O)(=O)O`, 203 to 204 °C.
On the same count and under the same terms, to `CC(C)C[Si](CC(C)C)(CC(C)C)O[C@H]1[C@H](C#N)[C@H](n2ccc(N)nc2=O)O[C@@H]1CO` belongs 101 to 102 °C.
Still for that read-out and setting: with `CC(C)C(C)(C)[Si](C)(C)O[C@H]1[C@@H](C#N)[C@H](n2ccc(N)nc2=O)O[C@@H]1CO` the figure was 179 to 182 °C; with `C[Si](C)(OC[C@H]1O[C@@H](n2ccc(N)nc2=O)[C@@H](C#N)[C@@H]1O)C1CCCCC1`, 152 to 153 °C; with `CC(C)(C)[Si](OC[C@H]1O[C@@H](n2ccc(N)nc2=O)[C@@H](C#N)[C@@H]1O)(c1ccccc1)c1ccccc1`, 187 °C.
On to `N#C[C@H]1[C@H](O)[C@@H](CO[Si](c2ccccc2)(c2ccccc2)c2ccccc2)O[C@H]1n1ccc(N)nc1=O`, for which the melting point was 203 °C (dec.).
The same measure, in the same setting: with `N#C[C@H]1[C@H](O)[C@@H](CO[Si](Cc2ccccc2)(Cc2ccccc2)Cc2ccccc2)O[C@H]1n1ccc(N)nc1=O` the figure was 188 °C (dec.); with `CC(C)C(C)(C)[Si](C)(C)O[C@H]1[C@H](C#N)[C@H](n2ccc(N)nc2=O)O[C@@H]1CO` (as salt: hydrochloride) [Example 26, 3′-O-Dimethylthexylsilyl-2′-cyano-2′-deoxy-1-β-D-arabinofuranosylcytosine hydrochloride], 206 °C (dec.).
With `CC(C)[C@H](N)C(=O)OC[C@H]1O[C@@H](n2ccc(N)nc2=O)[C@@H](C#N)[C@@H]1O[Si](C)(C)C(C)(C)C(C)C` (as salt: trifluoroacetate) [Example 31, 3′-O-Dimethylthexylsilyl-5′-O-(L-valyl)-2′-cyano-2′-deoxy-1-β-D-arabinofuranosylcytosine bis(trifluoroacetate)], the melting point lay in the range of 118 to 120 °C.
Consider `CC(C)[C@H](N)C(=O)OC[C@H]1O[C@@H](n2ccc(N)nc2=O)[C@@H](C#N)[C@@H]1O[Si](C)(C)C(C)(C)C` (as salt: trifluoroacetate) [Example 32, 5′-O-(L-Valyl)-3′-O-(tert-butyldimethylsilyl)-2′-cyano-2′-deoxy-1-β-D-arabinofuranosylcytosine bis(trifluoroacetate)], for which the melting point was in the range of 118 to 120 °C.
Regarding `CC(C)(C)[Si](C)(C)OC[C@H]1O[C@@H](n2ccc(N)nc2=O)[C@@H](C#N)[C@@H]1O` [Example 1, 5′-O-(tert-Butyldimethylsilyl)-2′-cyano-2′-deoxy-1-β-D-arabinofuranosylcytosine], the melting point is 185 °C (dec.). Besides, in data set [1], the inhibition in vivo came to 75%.
Regarding `CC(C)[Si](OC[C@H]1O[C@@H](n2ccc(N)nc2=O)[C@@H](C#N)[C@@H]1O)(C(C)C)C(C)C` [Example 2, 5′-O-Triisopropylsilyl-2′-cyano-2′-deoxy-1-β-D-arabinofuranosylcytosine], the melting point is 177 °C (dec.). Further, the inhibition in vivo in data set [1] was determined as 65%.
`CC[Si](CC)(OC[C@H]1O[C@@H](n2ccc(N)nc2=O)[C@@H](C#N)[C@@H]1O)C(C)C` [Example 3, 5′-O-Diethylisopropylsilyl-2′-cyano-2′-deoxy-1-β-D-arabinofuranosylcytosine]: in data set [1], the “IR (%) tumor growth inhibition rate” value is listed as 82%.
Consider `CC(C)C(C)(C)[Si](C)(C)OC[C@H]1O[C@@H](n2ccc(N)nc2=O)[C@@H](C#N)[C@@H]1O` [Example 6, 5′-O-Dimethylthexylsilyl-2′-cyano-2′-deoxy-1-β-D-arabinofuranosylcytosine], for which the melting point was 188 °C (dec.). For the same compound, the inhibition in vivo in data set [1] was 82%.
The compound `CC(C)C[Si](CC(C)C)(CC(C)C)OC[C@H]1O[C@@H](n2ccc(N)nc2=O)[C@@H](C#N)[C@@H]1O` [Example 7, 5′-O-Triisobutylsilyl-2′-cyano-2′-deoxy-1-β-D-arabinofuranosylcytosine] yielded a melting point of 152 °C. Further, the inhibition in vivo in data set [1] came to 79%.
In turn, `CCCCCCCC[Si](C)(C)OC[C@H]1O[C@@H](n2ccc(N)nc2=O)[C@@H](C#N)[C@@H]1O` [Example 10, 5′-O-(Dimethyl-n-octylsilyl)-2′-cyano-2′-deoxy-1-β-D-arabinofuranosylcytosine] gave a melting point of 142 °C. In addition, in data set [1], the inhibition in vivo is 68%.
In the same order, the values of `CC(C)(C)[Si]1(C(C)(C)C)OC[C@H]2O[C@@H](n3ccc(N)nc3=O)[C@@H](C#N)[C@@H]2O1` [Example 18, 3′,5′-O-(Di-tert-butylsilanediyl)-2′-cyano-2′-deoxy-1-β-D-arabinofuranosylcytosine] are 139 to 140 °C and 69%.
The compound `CC[Si](CC)(O[C@H]1[C@H](C#N)[C@H](n2ccc(N)nc2=O)O[C@@H]1CO)C(C)C` [Example 21, 3′-O-Diethylisopropylsilyl-2′-cyano-2′-deoxy-1-β-D-arabinofuranosylcytosine] gave a melting point of 161 to 163 °C. In addition, the inhibition in vivo in data set [1] is 85%.
Regarding `CCCCCCCC[Si](C)(C)O[C@H]1[C@H](C#N)[C@H](n2ccc(N)nc2=O)O[C@@H]1CO` [Example 23, 3′-O-(Dimethyl-n-octylsilyl)-2′-cyano-2′-deoxy-1-β-D-arabinofuranosylcytosine], the melting point lay within 153 to 154 °C.
Compound `CC(C)(C)[Si](C)(C)O[C@H]1[C@H](C#N)[C@H](n2ccc(N)nc2=O)O[C@@H]1CO.O=C(O)C(F)(F)F` [Example 24, 3′-O-(tert-Butyldimethylsilyl)-2′-cyano-2′-deoxy-1-β-D-arabinofuranosylcytosine trifluoroacetate] returned a melting point of 163 to 165 °C. In data set [1], the inhibition in vivo stood at 83%.
On to `CC(C)C(C)(C)[Si](C)(C)O[C@H]1[C@H](C#N)[C@H](n2ccc(N)nc2=O)O[C@@H]1CO.O=C(O)C(F)(F)F` [Example 25, 3′-O-Dimethylthexylsilyl-2′-cyano-2′-deoxy-1-β-D-arabinofuranosylcytosine trifluoroacetate], for which the melting point was 151 to 154 °C.
`CC(C)[Si](O[C@H]1[C@H](C#N)[C@H](n2ccc(N)nc2=O)O[C@@H]1CO)(C(C)C)C(C)C` [Example 27, 3′-O-Triisopropylsilyl-2′-cyano-2′-deoxy-1-β-D-arabinofuranosylcytosine] gave a melting point of 162 to 163 °C. The inhibition in vivo in data set [1] was 85%.
For the compound `CC(C)[C@H](N)C(=O)OC[C@H]1O[C@@H](n2ccc(N)nc2=O)[C@@H](C#N)[C@@H]1O[Si](C)(C)C(C)(C)C(C)C` [Example 31, 3′-O-Dimethylthexylsilyl-5′-O-(L-valyl)-2′-cyano-2′-deoxy-1-β-D-arabinofuranosylcytosine bis(trifluoroacetate)], the inhibition in vivo in data set [1] is 89%.
Still for that read-out and setting: to `CC(C)[C@H](N)C(=O)OC[C@H]1O[C@@H](n2ccc(N)nc2=O)[C@@H](C#N)[C@@H]1O[Si](C)(C)C(C)(C)C` [Example 32, 5′-O-(L-Valyl)-3′-O-(tert-butyldimethylsilyl)-2′-cyano-2′-deoxy-1-β-D-arabinofuranosylcytosine bis(trifluoroacetate)] belongs 85%.
Regarding `CCCCCCCCCCCCCCCC(=O)Nc1ccn([C@@H]2O[C@H](CO)[C@@H](O)[C@@H]2C#N)c(=O)n1` [P-CNDAC, 4-N-palmitoyl-2′-cyano-2′-deoxy-1-β-D-arabinofuranosylcytosine, reference compound], the deletion of tumor entry in data set [2] is listed as “no deletion of tumor”.
